Toxic doses and inconclusive results are not listed. The calls were made as follows: active = survival T/C of 150% or more; inactive = T/C below 125% in these data.
System: CD2F1 mice, L1210 leukemia ip, survival T/C
Test: NCI In Vivo Anticancer Drug Screen. Data for tumor model L1210 Leukemia (intraperitoneal) in CD2F1 (CDF1) mice
Settings: endpoint: mean survival time, higher = longer survival
Outline: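 Read-out first: treated-group measurement over vehicle-control measurement, expressed as a ratio. Animals bore a transplanted tumor line and were dosed with compound or vehicle.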

[1] = dose: 12.5 mg/kg/injection, schedule: Q01DX009 (ip), vehicle: saline with Tween-80
[2] = dose: 25.0 mg/kg/injection, schedule: Q01DX009 (ip), vehicle: saline with Tween-80
[3] = dose: 50.0 mg/kg/injection, schedule: Q01DX009 (ip), vehicle: saline with Tween-80
[4] = dose: 100.0 mg/kg/injection, schedule: Q01DX001 (ip), vehicle: saline
[5] = dose: 200.0 mg/kg/injection, schedule: Q01DX001 (ip), vehicle: saline
[6] = dose: 400.0 mg/kg/injection, schedule: Q01DX001 (ip), vehicle: saline
[7] = dose: 100.0 mg/kg/injection, schedule: Q01DX001 (ip), vehicle: saline with Tween-80
[8] = dose: 200.0 mg/kg/injection, schedule: Q01DX001 (ip), vehicle: saline with Tween-80
[9] = dose: 400.0 mg/kg/injection, schedule: Q01DX001 (ip), vehicle: saline with Tween-80
[10] = dose: 100.0 mg/kg/injection, schedule: Q01DX009 (ip), vehicle: saline with Tween-80
[11] = dose: 200.0 mg/kg/injection, schedule: Q01DX009 (ip), vehicle: saline with Tween-80
[12] = dose: 100.0 mg/kg/injection, schedule: Q04DX003 (ip), vehicle: saline with Tween-80
[13] = dose: 200.0 mg/kg/injection, schedule: Q04DX003 (ip), vehicle: saline with Tween-80
[14] = dose: 400.0 mg/kg/injection, schedule: Q04DX003 (ip), vehicle: saline with Tween-80
[15] = dose: 100.0 mg/kg/injection, schedule: Q04DX002 (ip), vehicle: saline with Tween-80
[16] = dose: 200.0 mg/kg/injection, schedule: Q04DX002 (ip), vehicle: saline with Tween-80
[17] = dose: 400.0 mg/kg/injection, schedule: Q04DX002 (ip), vehicle: saline with Tween-80

Measured: T/C

COc1cc2c(ccc3cc4cccc[n+]4cc32)c(Br)c1OC
inactive: [1] 98 % of control | dose: 12.5 mg/kg/injection, schedule: Q04DX003 (ip), vehicle: saline sonified 97 % of control | [2] 100 % of control | dose: 25.0 mg/kg/injection, schedule: Q04DX003 (ip), vehicle: saline sonified 97 % of control | [3] 100 % of control | dose: 50.0 mg/kg/injection, schedule: Q04DX003 (ip), vehicle: saline sonified 103 % of control

Nc1cc(Cl)c(I)cc1Cl
inactive: [4] 102 % of control | [5] 102 % of control | [6] 101 % of control

[O-]/[N+](=C\c1ccccc1)C1CCCCC1
inactive: [7] 94 % of control | [8] 95 % of control | [9] 95 % of control

CS/C(N)=N\C(=S)Nc1ccccc1
inactive: [10] 103 % of control | [11] 103 % of control | dose: 400.0 mg/kg/injection, schedule: Q01DX009 (ip), vehicle: saline with Tween-80 101 % of control

COC(=O)CCC(=O)C=[N+]=[N-]
inactive: dose: 1.5 mg/kg/injection, schedule: Q01DX009 (ip), vehicle: other 94 % of control | dose: 3.1 mg/kg/injection, schedule: Q01DX009 (ip), vehicle: other 94 % of control | dose: 6.2 mg/kg/injection, schedule: Q01DX009 (ip), vehicle: other 91 % of control | dose: 12.5 mg/kg/injection, schedule: Q01DX009 (ip), vehicle: other 91 % of control

CCCCCC(=O)COCC
inactive: [12] 103 % of control | [13] 91 % of control | [14] 103 % of control

O=c1[nH]c2ccc(Br)cc2c2ccccc12
inactive: [4] 90 % of control | [5] 94 % of control | [6] 100 % of control

O=C(OCC1OC(n2cnc(=O)[nH]c2=O)C(OC(=O)c2ccccc2)C1OC(=O)c1ccccc1)c1ccccc1 (stereo not drawn)
inactive: dose: 1.25 mg/kg/injection, schedule: Q04DX003 (ip), vehicle: saline 96 % of control | dose: 2.5 mg/kg/injection, schedule: Q04DX003 (ip), vehicle: saline 101 % of control | dose: 5.0 mg/kg/injection, schedule: Q04DX003 (ip), vehicle: saline 98 % of control | dose: 10.0 mg/kg/injection, schedule: Q04DX003 (ip), vehicle: saline 101 % of control | dose: 20.0 mg/kg/injection, schedule: Q04DX003 (ip), vehicle: saline 98 % of control | dose: 40.0 mg/kg/injection, schedule: Q04DX003 (ip), vehicle: saline 98 % of control

O=S(=O)(Nc1ccc(Cc2ccc(NS(=O)(=O)c3ccccc3)cc2)cc1)c1ccccc1
inactive: [7] 88 % of control | [8] 90 % of control | [9] 88 % of control

CN(C)/C=N\c1ncnc2c1ncn2C1OC(CO)C2OC(C)(C)OC21 (stereo not drawn)
inactive: [15] 109 % of control | [16] 109 % of control | [17] 114 % of control

CN=C(N)c1ccc(N=C(N)c2ccc(N=C(N)c3ccc(NC(=O)c4ccc(C(=O)Nc5ccc(C(N)=Nc6ccc(C(N)=Nc7ccc(C(N)=NC)cc7)cc6)cc5)cc4)cc3)cc2)cc1
inactive: dose: 62.5 mg/kg/injection, schedule: Q01DX Z (ip), vehicle: water 111 % of control

COC(=O)/C=C/N(Cc1ccccc1)Cc1ccccc1
inactive: [12] 98 % of control | [13] 96 % of control | [14] 94 % of control

CS(=O)(=O)c1ccnc2ccccc12
inactive: dose: 100.0 mg/kg/injection, schedule: Q04DX003 (ip), vehicle: saline 98 % of control | dose: 200.0 mg/kg/injection, schedule: Q04DX003 (ip), vehicle: saline 92 % of control | dose: 400.0 mg/kg/injection, schedule: Q04DX003 (ip), vehicle: saline 95 % of control

Nc1cc(=O)[nH]c(=S)[nH]1
inactive: [15] 97 % of control | [16] 105 % of control

O=C1OC(c2ccccc2)(c2ccccc2)c2cccc3cccc1c23
inactive: [12] 93 % of control | [14] 86 % of control

Fc1ccc2ccnnc2c1
inactive: dose: 100.0 mg/kg/injection, schedule: Q01DX001 (ip), vehicle: other 103 % of control | dose: 200.0 mg/kg/injection, schedule: Q01DX001 (ip), vehicle: other 95 % of control

COc1ccc(-c2c(O)c3ccc(OC)cc3oc2=O)cc1
inactive: [2] 96 % of control | [3] 108 % of control | [10] 108 % of control

CC1(C)CC([NH-])(C(=O)O)CC(C)(C)N1O.CC1(C)CC([NH-])(C(=O)O)CC(C)(C)N1O.[Zn+2]
inactive: [1] 96 % of control | [2] 96 % of control | [3] 96 % of control | [10] 93 % of control

CC(=O)OC1CCCCC1OC(C)=O (stereo not drawn)
inactive: [3] 92 % of control | [10] 92 % of control | [11] 103 % of control

NNC(=O)c1cc(NN)ccn1
inactive: [3] 102 % of control | [10] 100 % of control | [12] 100 % of control | [13] 98 % of control

O=C(NC/C(Br)=C/Br)Nc1cccc2c1CCCC2
inactive: [12] 96 % of control | [13] 101 % of control | [14] 90 % of control

OC1CCCCC(O)CCCC1 (stereo not drawn)
inactive: [7] 110 % of control | [15] 95 % of control | [8] 116 % of control | [16] 98 % of control | [9] 118 % of control | [17] 101 % of control

Reference: PubChem BioAssay AID256 (DTP/NCI, 2004)
